Measured values as given in ChEMBL document CHEMBL1140860, “Synthesis and evaluation of dihydroartemisinin and dihydroartemisitene acetal dimers showing anticancer and antiprotozoal activity” (Bioorg Med Chem, 2009).

Tests used:
[1] = test system: NCI-H23; test: Growth inhibition of human NCI-H23 cells after 48 hrs by sulforhodamine B assay; assay type: functional; conditions: NCI-H23, 48 h
[2] = test system: K562; test: Growth inhibition of human K562 cells after 48 hrs by sulforhodamine B assay; assay type: functional; conditions: K562, 48 h
[3] = test system: SK-MEL-2; test: Growth inhibition of human SK-MEL-2 cells after 48 hrs by sulforhodamine B assay; assay type: functional; conditions: SK-MEL-2, 48 h
[4] = test system: MDA-MB-231; test: Growth inhibition of human MDA-MB-231 cells after 48 hrs by sulforhodamine B assay; assay type: functional; conditions: MDA-MB-231, 48 h
[5] = test system: SW-620; test: Growth inhibition of human SW620 cells after 48 hrs by sulforhodamine B assay; assay type: functional; conditions: SW-620, 48 h
[6] = test system: MOLT-4; test: Growth inhibition of human MOLT4 cells after 48 hrs by sulforhodamine B assay; assay type: functional; conditions: MOLT-4, 48 h
[7] = test system: HCT-15; test: Growth inhibition of human HCT15 cells after 48 hrs by sulforhodamine B assay; assay type: functional; conditions: HCT-15, 48 h
[8] = test system: NCI-H226; test: Growth inhibition of human NCI-H226 cells after 48 hrs by sulforhodamine B assay; assay type: functional; conditions: NCI-H226, 48 h
[9] = test system: SK-MEL-5; test: Growth inhibition of human SK-MEL-5 cells after 48 hrs by sulforhodamine B assay; assay type: functional; conditions: SK-MEL-5, 48 h
[10] = test system: SK-OV-3; test: Growth inhibition of human SKOV3 cells after 48 hrs by sulforhodamine B assay; assay type: functional; conditions: SK-OV-3, 48 h
[11] = test system: A498; test: Growth inhibition of human A498 cells after 48 hrs by sulforhodamine B assay; assay type: functional; conditions: A498, 48 h
[12] = Growth inhibition of human Hs 578T cells after 48 hrs by sulforhodamine B assay; assay type: functional
[13] = test system: CCRF-CEM; test: Growth inhibition of human CCRF-CEM cells after 48 hrs by sulforhodamine B assay; assay type: functional
[14] = test system: SN12C; test: Growth inhibition of human SN12C cells after 48 hrs by sulforhodamine B assay; assay type: functional
[15] = test system: OVCAR-3; test: Growth inhibition of human OVCAR-3 cells after 48 hrs by sulforhodamine B assay; assay type: functional; conditions: OVCAR-3, 48 h
[16] = test system: SNB-75; test: Growth inhibition of human SNB75 cells after 48 hrs by sulforhodamine B assay; assay type: functional; conditions: SNB-75, 48 h
[17] = test system: SF-295; test: Growth inhibition of human SF295 cells after 48 hrs by sulforhodamine B assay; assay type: functional; conditions: SF-295, 48 h
[18] = test system: UACC-62; test: Growth inhibition of human UACC62 cells after 48 hrs by sulforhodamine B assay; assay type: functional; conditions: UACC-62, 48 h
[19] = test system: U-251; test: Growth inhibition of human U251 cells after 48 hrs by sulforhodamine B assay; assay type: functional; conditions: U-251, 48 h
[20] = test system: KM12; test: Growth inhibition of human KM12 cells after 48 hrs by sulforhodamine B assay; assay type: functional; conditions: KM12, 48 h
[21] = test system: TK-10; test: Growth inhibition of human TK10 cells after 48 hrs by sulforhodamine B assay; assay type: functional; conditions: TK-10, 48 h
[22] = test system: SF-268; test: Growth inhibition of human SF268 cells after 48 hrs by sulforhodamine B assay; assay type: functional; conditions: SF-268, 48 h
[23] = test system: SK-MEL-28; test: Growth inhibition of human SK-MEL-28 cells after 48 hrs by sulforhodamine B assay; assay type: functional; conditions: SK-MEL-28, 48 h
[24] = Selectivity index, ratio of TC50 for african green monkey (Cercopithecus aethiops) Vero cells to IC50 for chloroquine-sensitive Plasmodium falciparum D6; assay type: toxicity, cell-based
[25] = test system: MDA-N; test: Growth inhibition of human MDA-N cells after 48 hrs by sulforhodamine B assay; assay type: functional
[26] = Growth inhibition of human […] cells after 48 hrs by sulforhodamine B assay; assay type: functional
[27] = test system: T47D; test: Growth inhibition of human T47D cells after 48 hrs by sulforhodamine B assay; assay type: functional
[28] = test system: BT-549; test: Growth inhibition of human BT549 cells after 48 hrs by sulforhodamine B assay; assay type: functional; conditions: BT-549, 48 h
[29] = test system: HOP-92; test: Growth inhibition of human HOP92 cells after 48 hrs by sulforhodamine B assay; assay type: functional; conditions: HOP-92, 48 h
[30] = test system: HCC 2998; test: Growth inhibition of human HCC2998 cells after 48 hrs by sulforhodamine B assay; assay type: functional; conditions: HCC 2998, 48 h
[31] = test system: OVCAR-8; test: Growth inhibition of human OVCAR8 cells after 48 hrs by sulforhodamine B assay; assay type: functional; conditions: OVCAR-8, 48 h
[32] = test system: MCF7; test: Growth inhibition of human MCF7 cells after 48 hrs by sulforhodamine B assay; assay type: functional; conditions: MCF7, 48 h
[33] = Cytotoxicity against african green monkey Vero cells after 48 hrs by neutral red assay; assay type: cell-based; conditions: chlorocebus sabaeus, read-out: TC50
[34] = test system: M14; test: Growth inhibition of human M14 cells after 48 hrs by sulforhodamine B assay; assay type: functional; conditions: M14, 48 h
[35] = Selectivity index, ratio of TC50 for african green monkey (Cercopithecus aethiops) Vero cells to IC50 for chloroquine-resistant Plasmodium falciparum W2; assay type: toxicity, cell-based
[36] = test system: UACC-257; test: Growth inhibition of human UACC257 cells after 48 hrs by sulforhodamine B assay; assay type: functional; conditions: UACC-257, 48 h
[37] = test system: Plasmodium falciparum; test: Antimalarial activity after 72 hrs against chloroquine-sensitive Plasmodium falciparum D6 infected in erythrocytes by LDH assay; assay type: functional, organism-based; conditions: D6, 72 h
[38] = test system: Malme-3M; test: Growth inhibition of human MALME-3M cells after 48 hrs by sulforhodamine B assay; assay type: functional
[39] = test system: OVCAR-4; test: Growth inhibition of human OVCAR4 cells after 48 hrs by sulforhodamine B assay; assay type: functional; conditions: OVCAR-4, 48 h
[40] = test system: LOX IMVI; test: Growth inhibition of human LOXIMVI cells after 48 hrs by sulforhodamine B assay; assay type: functional
[41] = test system: MDA-MB-435; test: Growth inhibition of human MDA-MB-435 cells after 48 hrs by sulforhodamine B assay; assay type: functional; conditions: MDA-MB-435, 48 h
[42] = test system: NCI-H322M; test: Growth inhibition of human NCI-H322M cells after 48 hrs by sulforhodamine B assay; assay type: functional
[43] = test system: OVCAR-5; test: Growth inhibition of human OVCAR5 cells after 48 hrs by sulforhodamine B assay; assay type: functional; conditions: OVCAR-5, 48 h
[44] = test system: SR; test: Growth inhibition of human SR cells after 48 hrs by sulforhodamine B assay; assay type: functional
[45] = test system: EKVX; test: Growth inhibition of human EKVX cells after 48 hrs by sulforhodamine B assay; assay type: functional
[46] = test system: NCI-H522; test: Growth inhibition of human NCI-H522 cells after 48 hrs by sulforhodamine B assay; assay type: functional; conditions: NCI-H522, 48 h
[47] = test system: CAKI-1; test: Growth inhibition of human Caki1 cells after 48 hrs by sulforhodamine B assay; assay type: functional; conditions: CAKI-1, 48 h
[48] = test system: NCI-H460; test: Growth inhibition of human NCI-H460 cells after 48 hrs by sulforhodamine B assay; assay type: functional; conditions: NCI-H460, 48 h
[49] = test system: A549; test: Growth inhibition of human A549 cells after 48 hrs by sulforhodamine B assay; assay type: functional; conditions: A549, 48 h
[50] = test system: SF-539; test: Growth inhibition of human SF539 cells after 48 hrs by sulforhodamine B assay; assay type: functional; conditions: SF-539, 48 h
[51] = test system: NCI/ADR-RES; test: Growth inhibition of human NCI/ADR-RES cells after 48 hrs by sulforhodamine B assay; assay type: functional
[52] = test system: SNB-19; test: Growth inhibition of human SNB19 cells after 48 hrs by sulforhodamine B assay; assay type: functional; conditions: SNB-19, 48 h
[53] = test system: HT-29; test: Growth inhibition of human HT-29 cells after 48 hrs by sulforhodamine B assay; assay type: functional; conditions: HT-29, 48 h
[54] = test system: COLO 205; test: Growth inhibition of human COLO205 cells after 48 hrs by sulforhodamine B assay; assay type: functional; conditions: COLO 205, 48 h
[55] = test system: ACHN; test: Growth inhibition of human ACHN cells after 48 hrs by sulforhodamine B assay; assay type: functional
[56] = test system: Plasmodium falciparum; test: Antimalarial activity after 72 hrs against chloroquine-resistant Plasmodium falciparum W2 infected erythrocytes by LDH assay; assay type: functional, organism-based; conditions: W2, 72 h
[57] = test system: RXF 393; test: Growth inhibition of human RXF393 cells after 48 hrs by sulforhodamine B assay; assay type: functional; conditions: RXF 393, 48 h
[58] = test system: HOP-62; test: Growth inhibition of human HOP62 cells after 48 hrs by sulforhodamine B assay; assay type: functional; conditions: HOP-62, 48 h
[59] = test system: DU-145; test: Growth inhibition of human DU145 cells after 48 hrs by sulforhodamine B assay; assay type: functional; conditions: DU-145, 48 h
[60] = test system: HCT-116; test: Growth inhibition of human HCT116 cells after 48 hrs by sulforhodamine B assay; assay type: functional; conditions: HCT-116, 48 h
[61] = test system: PC-3; test: Growth inhibition of human PC3 cells after 48 hrs by sulforhodamine B assay; assay type: functional; conditions: PC-3, 48 h
[62] = test system: 786-0; test: Growth inhibition of human 786-0 cells after 48 hrs by sulforhodamine B assay; assay type: functional; conditions: 786-0, 48 h
[63] = test system: IGROV-1; test: Growth inhibition of human IGROV1 cells after 48 hrs by sulforhodamine B assay; assay type: functional; conditions: IGROV-1, 48 h

C[C@H]1[C@@H](OCCCO[C@H]2O[C@@H]3O[C@@]4(C)CC[C@H]5[C@H](C)CC[C@@H]([C@H]2C)[C@@]35OO4)O[C@@H]2O[C@@]3(C)CC[C@H]4[C@H](C)CC[C@@H]1[C@@]24OO3
GI50 [1]: > 100 µM
GI50 [2]: > 100 µM
GI50 [3]: > 100 µM
GI50 [4]: 7.34 µM
GI50 [5]: 0.522 µM
GI50 [6]: 5.95 µM
GI50 [7]: 0.403 µM
GI50 [8]: > 100 µM
GI50 [9]: 30.5 µM
GI50 [10]: > 100 µM
GI50 [11]: 14.7 µM
GI50 [12]: 0.62 µM
GI50 [13]: 1.31 µM
GI50 [14]: 4.03 µM
GI50 [15]: > 100 µM
GI50 [16]: > 100 µM
GI50 [17]: > 100 µM
GI50 [18]: 17.9 µM
GI50 [19]: > 100 µM
GI50 [20]: 0.517 µM
GI50 [21]: 2.41 µM
GI50 [22]: > 100 µM
GI50 [23]: > 100 µM
selectivity ratio [24]: > 21
GI50 [25]: 1.58 µM
GI50 [26]: 4.45 µM
GI50 [27]: 0.497 µM
GI50 [28]: 2.79 µM
GI50 [29]: > 100 µM
GI50 [30]: 9.65 µM
GI50 [31]: > 100 µM
GI50 [32]: 0.652 µM
CC50 at 48 h [33]: 296 µM
GI50 [34]: > 100 µM
selectivity ratio [35]: 35
GI50 [36]: > 100 µM
IC50 [37]: 14 µM
GI50 [38]: > 100 µM
GI50 [39]: > 100 µM
GI50 [40]: > 100 µM
GI50 [41]: 0.694 µM
GI50 [42]: > 100 µM
GI50 [43]: > 100 µM
GI50 [44]: 1.98 µM
GI50 [45]: 5.49 µM
GI50 [46]: 7.13 µM
GI50 [47]: 6.95 µM
GI50 [48]: 31.2 µM
GI50 [49]: 28.7 µM
GI50 [50]: > 100 µM
GI50 [51]: 3.64 µM
GI50 [52]: > 100 µM
GI50 [53]: 0.522 µM
GI50 [54]: 0.45 µM
GI50 [55]: 1.47 µM
IC50 [56]: 8.5 µM
GI50 [57]: 8 µM
GI50 [58]: > 100 µM
GI50 [59]: 100 µM
GI50 [60]: 0.545 µM
GI50 [61]: 3.08 µM
GI50 [62]: 1.41 µM
GI50 [63]: 7.68 µM
